Measured values: BindingDB's records for doi:10.1021/jm800889m (University of Wisconsin At Madison, 2008)

Experiments:
Assay in all cases: Radioligand Binding Assay
[1] = molecular target: T1, Gamma-aminobutyric acid receptor subunit alpha-5 [32-462]/beta-2 [26-512]/gamma-2 [40-467] (Homo sapiens, UniProt P18507+P31644+P47870); conditions: pH 7.4; 22 °C
T1 construct: 32-462; 26-512; 40-467

[2] = molecular target: T2, Gamma-aminobutyric acid receptor subunit alpha-4 [36-554]/beta-2 [26-512]/gamma-2 [40-467] (Homo sapiens, UniProt P18507+P47870+P48169); conditions: pH 7.4; 22 °C
T2 construct: 36-554; 26-512; 40-467

[3] = molecular target: T3, Gamma-aminobutyric acid receptor subunit alpha-1 [28-456]/beta-2 [26-512]/gamma-2 [40-467,R233C] (Homo sapiens, UniProt P14867+P18507+P47870, R233C); conditions: 25 °C
T3 construct: 28-456; 26-512; 40-467

[4] = molecular target: T4, Gamma-aminobutyric acid receptor subunit alpha-2 [29-451]/beta-2 [26-512]/gamma-2 [40-467] (Homo sapiens, UniProt P18507+P47869+P47870); conditions: pH 7.4; 22 °C
T4 construct: 29-451; 26-512; 40-467

[5] = molecular target: T5, Gamma-aminobutyric acid receptor subunit alpha-1 [T162C]/beta-2 [26-512]/gamma-2 [40-467] (Homo sapiens, UniProt P14867+P18507+P47870, T162C); conditions: 25 °C
T5 construct: 26-512; 40-467

[6] = molecular target: T6, Gamma-aminobutyric acid receptor subunit alpha-3 [29-492]/beta-2 [26-512]/gamma-2 [40-467] (Homo sapiens, UniProt P18507+P34903+P47870); conditions: pH 7.4; 22 °C
T6 construct: 29-492; 26-512; 40-467

[7] = molecular target: T7, Gamma-aminobutyric acid receptor subunit alpha-1 [28-456]/beta-2 [26-512]/gamma-2 [40-467,L179C] (Homo sapiens, UniProt P14867+P18507+P47870, L179C); conditions: 25 °C
T7 construct: 28-456; 26-512; 40-467

[8] = molecular target: T8, Gamma-aminobutyric acid receptor subunit alpha-1 [28-456]/beta-2 [26-512]/gamma-2 [40-200],P14867[176-456] (Homo sapiens, UniProt P14867+P18507+P47870); conditions: 25 °C
T8 construct: 28-456; 26-512; 40-200; 176-456

[9] = molecular target: T9, Gamma-aminobutyric acid receptor subunit alpha-1 [V202C]/beta-2 [26-512]/gamma-2 [40-467] (Homo sapiens, UniProt P14867+P18507+P47870, V202C); conditions: 25 °C
T9 construct: 26-512; 40-467

[10] = molecular target: T10, Gamma-aminobutyric acid receptor subunit alpha-1 [T206C]/beta-2 [26-512]/gamma-2 [40-467] (Homo sapiens, UniProt P14867+P18507+P47870, T206C); conditions: 25 °C
T10 construct: 26-512; 40-467

[11] = molecular target: T11, Gamma-aminobutyric acid receptor subunit alpha-1 [F99C]/beta-2 [26-512]/gamma-2 [40-467] (Homo sapiens, UniProt P14867+P18507+P47870, F99C); conditions: pH 7.4; 22 °C
T11 construct: 26-512; 40-467

[12] = molecular target: T12, Gamma-aminobutyric acid receptor subunit alpha-1 [28-456]/beta-2 [26-512]/gamma-2 [40-467] (Homo sapiens, UniProt P14867+P18507+P47870); conditions: pH 7.4; 22 °C
T12 construct: 28-456; 26-512; 40-467

[13] = molecular target: T13, Gamma-aminobutyric acid receptor subunit alpha-1 [28-456]/beta-2 [26-512]/gamma-2 [40-467,M169C] (Homo sapiens, UniProt P14867+P18507+P47870, M169C); conditions: 25 °C
T13 construct: 28-456; 26-512; 40-467

[14] = molecular target: T14, Gamma-aminobutyric acid receptor subunit alpha-1 [S205C]/beta-2 [26-512]/gamma-2 [40-467] (Homo sapiens, UniProt P14867+P18507+P47870, S205C); conditions: 25 °C
T14 construct: 26-512; 40-467

[15] = molecular target: T15, Gamma-aminobutyric acid receptor subunit alpha-1 [28-456]/beta-2 [26-512]/gamma-2 [40-467,R183C] (Homo sapiens, UniProt P14867+P18507+P47870, R183C); conditions: 25 °C
T15 construct: 28-456; 26-512; 40-467

[16] = molecular target: T16, Gamma-aminobutyric acid receptor subunit alpha-1 [28-456]/beta-2 [26-512]/gamma-2 [40-467,T165C] (Homo sapiens, UniProt P14867+P18507+P47870, T165C); conditions: 25 °C
T16 construct: 28-456; 26-512; 40-467

[17] = molecular target: T17, Gamma-aminobutyric acid receptor subunit alpha-1 [S204C]/beta-2 [26-512]/gamma-2 [40-467] (Homo sapiens, UniProt P14867+P18507+P47870, S204C); conditions: 25 °C
T17 construct: 26-512; 40-467

[18] = molecular target: T18, Gamma-aminobutyric acid receptor subunit alpha-6 [20-453]/beta-2 [26-512]/gamma-2 [40-467] (Homo sapiens, UniProt P18507+P47870+Q16445); conditions: pH 7.4; 22 °C
T18 construct: 20-453; 26-512; 40-467

[19] = molecular target: T19, Gamma-aminobutyric acid receptor subunit alpha-1 [28-456]/beta-2 [26-512]/gamma-2 [40-467,A118C] (Homo sapiens, UniProt P14867+P18507+P47870, A118C); conditions: 25 °C
T19 construct: 28-456; 26-512; 40-467

[20] = molecular target: T20, Gamma-aminobutyric acid receptor subunit alpha-1 [28-456]/beta-2 [26-512]/gamma-2 [40-467,T181C] (Homo sapiens, UniProt P14867+P18507+P47870, T181C); conditions: 25 °C
T20 construct: 28-456; 26-512; 40-467

[21] = molecular target: T21, Gamma-aminobutyric acid receptor subunit alpha-1 [V211C]/beta-2 [26-512]/gamma-2 [40-467] (Homo sapiens, UniProt P14867+P18507+P47870, V211C); conditions: 25 °C
T21 construct: 26-512; 40-467

[22] = molecular target: T22, Gamma-aminobutyric acid receptor subunit alpha-1 [G200C]/beta-2 [26-512]/gamma-2 [40-467] (Homo sapiens, UniProt P14867+P18507+P47870, G200C); conditions: 25 °C
T22 construct: 26-512; 40-467

[23] = molecular target: T23, Gamma-aminobutyric acid receptor subunit alpha-1 [28-456]/beta-2 [26-512]/gamma-2 [40-467,T120C] (Homo sapiens, UniProt P14867+P18507+P47870, T120C); conditions: 25 °C
T23 construct: 28-456; 26-512; 40-467

[24] = molecular target: T24, Gamma-aminobutyric acid receptor subunit alpha-1 [28-456]/beta-2 [26-512]/gamma-2 [40-467,R224C] (Homo sapiens, UniProt P14867+P18507+P47870, R224C); conditions: 25 °C
T24 construct: 28-456; 26-512; 40-467

[25] = molecular target: T25, Gamma-aminobutyric acid receptor subunit alpha-1 [A160C]/beta-2 [26-512]/gamma-2 [40-467] (Homo sapiens, UniProt P14867+P18507+P47870, A160C); conditions: 25 °C
T25 construct: 26-512; 40-467

[26] = molecular target: T26, Gamma-aminobutyric acid receptor subunit alpha-1 [28-456]/beta-2 [26-512]/gamma-2 [40-467,R171C] (Homo sapiens, UniProt P14867+P18507+P47870, R171C); conditions: 25 °C
T26 construct: 28-456; 26-512; 40-467

[27] = molecular target: T27, Gamma-aminobutyric acid receptor subunit alpha-1 [G157C]/beta-2 [26-512]/gamma-2 [40-467] (Homo sapiens, UniProt P14867+P18507+P47870, G157C); conditions: 25 °C
T27 construct: 26-512; 40-467

[28] = molecular target: T28, Gamma-aminobutyric acid receptor subunit alpha-1 [28-456]/beta-2 [26-512]/gamma-2 [40-467,D95C] (Homo sapiens, UniProt P14867+P18507+P47870, D95C); conditions: 25 °C
T28 construct: 28-456; 26-512; 40-467

Question: For `Cc1ccc(-c2nc3ccc(C)cn3c2CC(=O)N(C)C)cc1` [Ambien], which Ki [1] is on record?
Answer: > 15000 nM

Question: And the Ki [2]?
Answer: > 15000 nM

Question: With `CN1CCN(C(=O)Oc2c3[nH]ccnc-3c(=O)n2-c2ccc(Cl)cn2)CC1` [ESZ] as the compound, how does the Ki [3] read?
Answer: 67 nM

Question: And the Ki [4]?
Answer: 114 nM

Question: What about the Ki [5] of the same compound?
Answer: 33.8 nM

Question: And the Ki [6]?
Answer: 162 nM

Question: What about the Ki [7] of the same compound?
Answer: 46.3 nM

Question: What about the Ki [8] of the same compound?
Answer: 22.4 nM

Question: What about the Ki [1] of the same compound?
Answer: 102 nM

Question: What about the Ki [9] of the same compound?
Answer: 249 nM

Question: And the Ki [10]?
Answer: 0.83 nM

Question: And the Ki [11]?
Answer: 407 nM

Question: What about the Ki [12] of the same compound?
Answer: 50.1 nM

Question: And the Ki [13]?
Answer: 102 nM

Question: What about the Ki [14] of the same compound?
Answer: 34.9 nM

Question: What about the Ki [15] of the same compound?
Answer: 174 nM

Question: And the Ki [16]?
Answer: 71.9 nM

Question: What about the Ki [17] of the same compound?
Answer: 57.9 nM

Question: And the Ki [18]?
Answer: > 15000 nM

Question: And the Ki [19]?
Answer: 393 nM

Question: And the Ki [2]?
Answer: > 15000 nM

Question: And the Ki [20]?
Answer: 503 nM

Question: What about the Ki [21] of the same compound?
Answer: 62.4 nM

Question: What about the Ki [22] of the same compound?
Answer: 119 nM

Question: And the Ki [23]?
Answer: 75.2 nM

Question: What about the Ki [24] of the same compound?
Answer: 70.9 nM

Question: What about the Ki [25] of the same compound?
Answer: 60.4 nM

Question: What about the Ki [26] of the same compound?
Answer: 110 nM

Question: And the Ki [27]?
Answer: 2100 nM

Question: And the Ki [28]?
Answer: 82.4 nM
